This passage reports MIC and fragment found results from paper PMC7688903 (Frontiers in Microbiology, 2020).

One data set relates to S. aureus ATCC 25923. Briefly: microbe, parasite or virus in culture. Type of data set: cell-based, Staphylococcus aureus. The note with it: Staphylococcus aureus, ATCC25923, 20 h. Here is the method:
(§1) The antimicrobial activities of the peptides were tested against E. coli ATCC 25922, P. aeruginosa ATCC 27853, carbapenem-resistant P. aeruginosa SIPI-012, A. baumannii ATCC 19606, carbapenem-resistant A. baumannii SIPI-025, S. aureus ATCC 25923, and C. albicans ATCC 10231. The minimum inhibitory concentration (MIC) values were determined using the microdilution method according to Clinical and Laboratory Standards Institute guidelines ([CLSI, 2008], [2012]). The peptides were dissolved in 10 mM PB to a concentration of 1280 μg/mL as stock solutions.
(§2) For inoculum preparation of bacteria, morphologically similar colonies selected from fresh MH agar plates were transferred using a loop into approximately 10 mL of MH broth in a capped test tube and vortexed. The suspension was adjusted with MH broth to achieve a turbidity equivalent to a 0.5 McFarland standard (BaSO4 solution prepared spectrophotometrically). A working suspension was prepared by making a 1:15 dilution followed by a 1:20 dilution of the stock suspension with MH broth medium to obtain approximately 5 × 10^5 CFU/mL. For inoculum preparation of yeast, five fresh colonies of approximately 1 mm diameter were picked from 24-hour-old cultures of C. albicans and suspended in 5 mL of sterile 0.85% saline. The resulting suspension was vortexed and the cell density was adjusted by adding sufficient sterile saline to achieve a turbidity equivalent to a 0.5 McFarland standard. A working suspension was prepared by making a 1:100 dilution followed by a 1:20 dilution of the stock suspension with RPMI 1640 broth medium to obtain 0.5 × 10^3 to 2.5 × 10^3 CFU/mL. Intermediate twofold dilutions of the peptides were prepared in MH broth and RPMI 1640 medium, and 90 μL aliquots were added to each well in addition to 10 μL of the inoculum prepared above.
(§3) Each plate included a growth control well and a sterility (uninoculated) control well. Colistin, vancomycin hydrochloride, and amphotericin B were used as positive controls for gram-negative bacteria, gram-positive bacteria, and fungi, respectively. The bacterial and fungal plates were incubated at 37°C for 20 h and 35°C for 48 h, respectively, both under ambient atmosphere. The inhibition of microbial growth was assessed visually. The MICs were determined from independent triplicate assays.

In a further data set the test system is Trypsin. Put plainly: trypsin in 0.1 M NH4HCO3 buffer (pH 8.2). The note with it: 37°C, up to 24 h.
For another data set, the system named is C. albicans ATCC 10231. Put plainly: microbe, parasite or virus in culture. Type of data set: cell-based, Candida albicans. The note with it: Candida albicans, ATCC10231; C. albicans ATCC 10231; RPMI 1640, 35°C, 48 h; visual; independent triplicate assays; read-out: MIC. The protocol: as §1, §2, §3

Converted amounts (≈) assume the structure as drawn. “Also recorded” adds a separate entry of the source. Counter-ions that a name gives are not always drawn.

In the data set with S. aureus ATCC 25923, `CN[C@H](CC(C)C)C(=O)N[C@H]1C(=O)N[C@@H](CC(N)=O)C(=O)N[C@H]2C(=O)N[C@H]3C(=O)N[C@H](C(=O)N[C@H](C(=O)O)c4cc(O)cc(O)c4-c4cc3ccc4O)[C@H](O)c3ccc(c(Cl)c3)Oc3cc2cc(c3O[C@@H]2O[C@H](CO)[C@@H](O)[C@H](O)[C@H]2O[C@H]2C[C@](C)(N)[C@H](O)[C@H](C)O2)Oc2ccc(cc2Cl)[C@H]1O` [Van, vancomycin hydrochloride, reference compound] came in with an MIC of 0.5 µg/mL. On to krLFkkLLkYLrkF, for which the fragment found result in the data set on Trypsin is given as “krLFkkLLkYLr (k) 1–12, major, 18 h; also recorded: (r) LFkkLLkYLr (k) 3–12, major, 18 h”. Regarding KRLFkkLLKYLRkF, in the data set with Trypsin, the fragment found entry is “(k) kLLK (Y) 6–9, major, 18 h; also recorded: (K) YLR (k) 10–12, major, 18 h; also recorded: (K) YLRkF 10–14, major, 18 h; also recorded: (K) RLFk (k) 2–5, major, 18 h”.

As to `C[C@@H]1[C@H](O)[C@@H](C)/C=C/C=C/C=C/C=C/C=C/C=C/C=C/[C@H](O[C@@H]2O[C@H](C)[C@@H](O)[C@H](N)[C@@H]2O)C[C@@H]2O[C@](O)(C[C@@H](O)C[C@@H](O)[C@H](O)CC[C@@H](O)C[C@@H](O)CC(=O)O[C@H]1C)C[C@H](O)[C@H]2C(=O)O` [AmB, amphotericin B, reference compound], the MIC with C. albicans ATCC 10231 is 0.25 µg/mL (≈ 0.271 µM).
